Converted amounts (≈) assume the structure as drawn.

The experiment deals with Mycobacterium tuberculosis. As to the kind of experiment: Antimycobacterial activity against Mycobacterium tuberculosis H37Ra after 7 days by microplate Alamar blue assay. Format: functional. The following applies: 168 h.
For `COc1ccc2c(c1)OC1=C(C(=O)CCC1)C2c1c[nH]c2ccccc12` (stereo unspecified), the MIC is > 100 µg/mL.
Consider `CC1(C)CC(=O)C2=C(C1)Oc1c(O)cccc1C2c1c[nH]c2ccccc12` (stereo unspecified), for which the MIC stood at 100 µg/mL (≈ 278 µM).
On to `CC[C@H](C)[C@@H](O)[C@@H](C)C(=O)O[C@@]1(C)C(=O)c2c(cc(O)c3c2CCC[C@H]3C)C(C)(O)C1=O` (stereo partly specified), for which the MIC is > 100 µg/mL.
Molecule `COc1cc(O)cc2c1C(=O)c1c(O)cc(C)cc1C2=O` [QUESTIN] returned a minimum inhibitory concentration (MIC) of 50 µg/mL (≈ 176 µM).
In the case of `CN1C(=O)C(C2C3=C(CCCC3=O)Oc3ccc([N+](=O)[O-])cc32)C(=O)N(C)C1=O` (stereo unspecified) it was > 100 µg/mL; in that of `CC(=O)c1cc2cc(Br)ccc2oc1=O`, > 100 µg/mL; in that of `COc1ccc2oc(=O)c(C(C)=O)cc2c1`, > 100 µg/mL.
For `CN1C(=O)C(C2C3=C(CC(C)(C)CC3=O)Oc3ccc(Cl)cc32)C(=O)N(C)C1=O` (stereo unspecified), the MIC is > 100 µg/mL.
In the case of `COC(=O)C1=C(C)Oc2ccc(Cl)cc2[C@@H]1[C@H](C(C)=O)C(=O)OC` it was > 100 µg/mL; in that of `CC1(C)CC(=O)C2=C(C1)Oc1c(O)cccc1C2n1nnc2ccccc21` (stereo unspecified), > 100 µg/mL; in that of `C[C@@H]1CCN2C[C@@]34C[C@@]5(CC(=O)N(C)C5=O)C(C)(C)[C@H]3C[C@@]12C(=O)N4C`, 25 µg/mL (≈ 69.5 µM).
On to `O=C1CCCC2=C1C(c1c[nH]c3ccccc13)c1cc(Cl)ccc1O2` (stereo unspecified), for which the MIC amounted to 50 µg/mL (≈ 143 µM).
On to `COc1ccc(Br)c2c1OC1=C(C(=O)CCC1)C2c1c[nH]c2ccccc12` (stereo unspecified), for which the minimal inhibitory concentration (MIC) was > 100 µg/mL.
Then `CC1(C)CC(=O)C2=C(C1)Oc1c(cc(C(C)(C)C)cc1C(C)(C)C)C2c1c[nH]c2ccccc12` (stereo unspecified), with > 100 µg/mL; and `CN1C(=O)C(C2C3=C(CCCC3=O)Oc3ccc(Cl)cc32)C(=O)N(C)C1=O` (stereo unspecified), with > 100 µg/mL.
In the case of `O=C(c1ccccc1)c1cc2cc([N+](=O)[O-])ccc2oc1=O` it was 50 µg/mL (≈ 169 µM); in that of `COC(=O)[C@@H]1CC[C@@]23COC(=O)C2=CCC[C@@H]3[C@@]1(C)CC(=O)c1ccoc1`, > 100 µg/mL; in that of `COc1ccc(Br)c2c1OC1=C(C(=O)CC(C)(C)C1)C2n1nnc2ccccc21` (stereo unspecified), > 100 µg/mL.
Turning to `COc1ccc2c(c1)C(C1C(=O)N(C)C(=O)N(C)C1=O)C1=C(CC(C)(C)CC1=O)O2` (stereo unspecified), the MIC is > 100 µg/mL.
`CC(=O)c1cc2cc(Cl)ccc2oc1=O`: the minimum inhibitory concentration (MIC) was > 100 µg/mL.
In the case of `CC[C@H](C)[C@@H](O)[C@@H](C)C(=O)O[C@H]1CC(CC(=O)[C@H]2[C@H](C)CCC[C@@H]2O)=C(C)C(=O)[C@@]1(C)O` it was > 100 µg/mL; in that of `CN1C(=O)C(C2C3=C(CC(C)(C)CC3=O)Oc3ccc(Br)cc32)C(=O)N(C)C1=O` (stereo unspecified), > 100 µg/mL; in that of `COc1ccc2c(c1)C(c1c[nH]c3ccccc13)C1=C(CCCC1=O)O2` (stereo unspecified), 100 µg/mL (≈ 290 µM).
As for `C/C=C(\C)c1c(Cl)c(OC)c(C)c(O)c1Oc1c(Cl)c(O)c(Cl)c(C)c1C(=O)OC`, the MIC worked out at 100 µg/mL (≈ 210 µM).
In the case of `O=C1CCCC2=C1C(c1c[nH]c3ccccc13)c1c(ccc3ccccc13)O2` (stereo unspecified) it was > 100 µg/mL; in that of `CN1C(=O)C(C2C3=C(CCCC3=O)Oc3ccc(Br)cc32)C(=O)N(C)C1=O` (stereo unspecified), > 100 µg/mL.
`COc1cc(O)cc2cc3c(c(O)c12)C(=O)C[C@@](C)(O)C3`: the MIC worked out at 25 µg/mL (≈ 86.7 µM).
Then `O=C(c1ccccc1)c1cc2ccccc2oc1=O`, with 50 µg/mL (≈ 200 µM); and `COC(=O)C1=C(C)Oc2c(O)cccc2[C@@H]1[C@H](C(C)=O)C(=O)OC`, with > 100 µg/mL; and `CN1c2ccccc2C2CC1OC1=C2C(=O)CCC1` (stereo unspecified), with > 100 µg/mL.
Then `O=C1CCCC2=C1C(c1c[nH]c3ccccc13)c1cccc(O)c1O2` (stereo unspecified), with > 100 µg/mL.
Then `CC1(C)CC(=O)C2=C(C1)Oc1ccc(Cl)cc1C2c1c(C(=O)O)[nH]c2ccccc12` (stereo unspecified), with 100 µg/mL (≈ 237 µM).
Turning to `C/C(=C\C=C\[C@H](O)[C@@H](C)O)[C@H](O)[C@H](C)C(=O)O[C@H]1C[C@H](C)C[C@@H]2C=C[C@H](C)[C@](C)(C(=O)CCO)[C@@H]12`, the minimum inhibitory concentration (MIC) is > 100 µg/mL.
Then `Cc1cc(O)c2c(c1O)C(=O)c1cc(O)cc(O)c1C2=O` [CATENARIN], with 100 µg/mL (≈ 349 µM).
For the molecule `C/C=C(\C)c1c(Br)c(O)c(C)c2c1Oc1cc(O)c(Br)c(C)c1C(=O)O2`, the MIC was 50 µg/mL (≈ 103 µM).
In the case of `O=C1CCCC2=C1C(n1nnc3ccccc31)c1cc(Cl)ccc1O2` (stereo unspecified) it was > 100 µg/mL.
As to `CN1C(=O)C(C2C3=C(CC(C)(C)CC3=O)Oc3ccc([N+](=O)[O-])cc32)C(=O)N(C)C1=O` (stereo unspecified), the MIC was > 100 µg/mL.
In the case of `NCCS(=O)(=O)O` [TAURINE] it was > 100 µg/mL; in that of `O=C1NC(=O)/C(=C2/CCNC(=O)c3[nH]c(Br)cc32)N1`, > 100 µg/mL.
Then `O=c1cc(CO)occ1O` [KOJIC ACID], with > 100 µg/mL.
In the case of `CN1C(=O)C(C2C3=C(CC(C)(C)CC3=O)Oc3ccccc32)C(=O)N(C)C1=O` (stereo unspecified) it was > 100 µg/mL; in that of `O=C1CCCC2=C1C(c1c[nH]c3ccccc13)c1ccc(O)cc1O2` (stereo unspecified), > 100 µg/mL.
Turning to `COc1ccc(Br)c2c1OC1=C(C(=O)CC(C)(C)C1)C2c1c[nH]c2ccccc12` (stereo unspecified), the MIC is > 100 µg/mL.
In the case of `O=C(c1ccccc1)c1cc2cc(Cl)ccc2oc1=O`, the minimal inhibitory concentration (MIC) is > 100 µg/mL.
Take `COC(=O)C1=C(C)Oc2c(cc(C(C)(C)C)cc2C(C)(C)C)[C@@H]1[C@H](C(C)=O)C(=O)OC`: the minimum inhibitory concentration (MIC) is > 100 µg/mL.
In the case of `C/C(=C\C=C\[C@H](O)[C@@H](C)O)[C@H](O)[C@H](C)C(=O)O[C@H]1C[C@H](C)C[C@@H]2C=C[C@H](C)[C@](C)(C(=O)C(O)CO)[C@@H]12` (stereo partly specified) it was > 100 µg/mL; in that of `CC1(C)CC(=O)C2=C(C1)Oc1ccc3ccccc3c1C2c1c[nH]c2ccccc12` (stereo unspecified), 25 µg/mL (≈ 63.5 µM); in that of `C[C@@H]1[C@H](O)[C@@H](C)/C=C/C=C/C=C/C=C/C=C/C=C/C=C/[C@H](O[C@@H]2O[C@H](C)[C@@H](O)[C@H](N)[C@@H]2O)C[C@@H]2O[C@](O)(C[C@@H](O)C[C@@H](O)[C@H](O)CC[C@@H](O)C[C@@H](O)CC(=O)O[C@H]1C)C[C@H](O)[C@H]2C(=O)O` [AMPHOTERICIN B], > 100 µg/mL.
`C/C=C(\C)c1c(Cl)c(OC)c(C)c2c1Oc1c(Cl)c(O)c(Cl)c(C)c1C(=O)O2`: it took 100 µg/mL (≈ 225 µM) to inhibit growth (MIC).
The molecule `COc1ccc2c(c1)OC1=C(C(=O)CC(C)(C)C1)C2c1c[nH]c2ccccc12` (stereo unspecified) returned a minimum inhibitory concentration (MIC) of 100 µg/mL (≈ 268 µM).
In the case of `CC1(C)CC(=O)C2=C(C1)Oc1ccc(Br)cc1C2n1nnc2ccccc21` (stereo unspecified) it was > 100 µg/mL; in that of `O=[N+]([O-])c1cccc2ncccc12`, 100 µg/mL (≈ 574 µM).
Then `CC1(C)CC(=O)C2=C(C1)Oc1ccccc1C2c1c[nH]c2ccccc12` (stereo unspecified), with 50 µg/mL (≈ 146 µM).
Then `O=C(OC[C@@H](O)[C@@H](O)COC(=O)/C(Cc1ccc(O)cc1)=N\O)/C(Cc1ccc(O)cc1)=N\O` [ASPERGILLUSOL A], with > 100 µg/mL.
On to `O=C(c1ccccc1)c1cc2c(ccc3ccccc32)oc1=O`, for which the MIC is > 100 µg/mL.
Then `O=C1CCCC2=C1C(c1c[nH]c3ccccc13)c1ccccc1O2` (stereo unspecified), with > 100 µg/mL; and `O=C1CCCC2=C1C(c1c[nH]c3ccccc13)c1cc(Br)ccc1O2` (stereo unspecified), with 50 µg/mL (≈ 127 µM); and `CC[C@@H](C)C[C@]1(C)C=C/C(=C2/C(=O)O[C@H](CC(=O)O)C2=O)O1`, with 100 µg/mL (≈ 324 µM).
With `COC(=O)C1=C(C)Oc2ccc(Br)cc2[C@@H]1[C@H](C(C)=O)C(=O)OC`, the MIC is > 100 µg/mL.
Turning to `CC1=CC2=C(Cc3c(O)cc(C)oc3=O)C(=O)[C@](C)(O)[C@@H](O)C2=CO1`, the MIC was > 100 µg/mL.
For `CC(=O)c1cc2ccccc2[nH]c1=O`, the minimal inhibitory concentration (MIC) was > 100 µg/mL.

For orientation: MIC means the smallest concentration in the dilution series that meets the test's criterion for growth inhibition.

Source of the values: ChEMBL document CHEMBL3352707, “Antimycobacterial activity of natural products and synthetic agents: pyrrolodiquinolines and vermelhotin as anti-tubercular leads against clinical multidrug resistant isolates of Mycobacterium tuberculosis” (Eur J Med Chem, 2015).
